Experimental data: the supplement of paper PMC6045584
± gives the standard deviation of the averaged measurements.

Each test system was assayed with CC[C@@]1(O)C(=O)OCc2c1cc1n(c2=O)Cc2cc3ccccc3nc2-1 [CAMPTOTHECIN] (assay: surviving fraction relative to DMSO-only wells; higher = less growth inhibition). Details: 0.5 nM; exposure time: 5 days.
Procedure, shortened: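 In 384-well plates, 250–500 log-phase tumour cells per well were given 24 hours before five days of continuous exposure to inhibitors at 0.5, 1, 5, 10, 50, 100, 500 and 1000 nM. Surviving fraction is luminescence from CellTiter-Glo, normalised to the median of wells containing DMSO alone. Reading took place after 10 minutes at room temperature.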

In order of rising surviving fraction:
1. ASKA SYNOVIAL  0.303 ± 0.029
2. SG32 HEADNECK  0.308 ± 0.056
3. SNU475 LIVER  0.34 ± 0.0091
4. COLO320DM LARGE INTESTINE  0.381 ± 0.011
5. HCC1954 BREAST  0.381 ± 0.037
6. SG31 HEADNECK  0.444 ± 0.03
7. MDAMB134 BREAST  0.662 ± 0.057
8. MDAMB361 BREAST  0.664 ± 0.069
9. LM7 BONE  0.73 ± 0.032
10. MCF7 BREAST  0.731 ± 0.032
11. BT549 BREAST  0.743 ± 0.096
12. HUO3N1 BONE  0.761 ± 0.25
13. RDES SOFT TISSUE  0.776 ± 0.076
14. CCK81 LARGE INTESTINE  0.789 ± 0.034
15. CASKI CERVIX  0.798 ± 0.11
16. SCC003 HEADNECK  0.817 ± 0.034
17. T47D BREAST  0.819 ± 0.035
18. SIHA CERVIX  0.822 ± 0.017
19. OSHN BONE  0.83 ± 0.013
20. NOS1 BONE  0.833 ± 0.15
21. HU09 BONE  0.84 ± 0.015
22. MDAMB157 BREAST  0.857 ± 0.063
23. VP229 BREAST  0.862 ± 0.018
24. OS25HAL BONE  0.877 ± 0.013
25. CADOES1 SOFT TISSUE  0.886 ± 0.088
26. MDAMB231 BREAST  0.887 ± 0.025
27. HOSMNG BONE  0.889 ± 0.11
28. NY BONE  0.894 ± 0.052
29. PCI30 HEADNECK  0.908 ± 0.043
30. A549 LUNG  0.909 ± 0.032
31. 143B BONE  0.911 ± 0.076
32. CAL51 BREAST  0.923 ± 0.077
33. HELA CERVIX  0.934 ± 0.062
34. 22RV1 PROSTATE  0.938 ± 0.095
35. HCC38 BREAST  0.946 ± 0.16
36. NCIH441 LUNG  0.951 ± 0.045
37. HMT3552 BREAST  0.955 ± 0.056
38. HT1080 SOFT TISSUE  0.956 ± 0.017

Same assay, conditions: 1 nM; exposure time: 5 days

In order of falling surviving fraction:
1. SJSA1 BONE  1.2 ± 0.06
2. 143B BONE  0.9815 ± 0.00071
3. HOSMNG BONE  0.973 ± 0.035
4. 22RV1 PROSTATE  0.957 ± 0.053
5. HUO3N1 BONE  0.955 ± 0.14
6. HMT3552 BREAST  0.944 ± 0.087
7. HELA CERVIX  0.937 ± 0.044
8. A549 LUNG  0.933 ± 0.021
9. COLO320DM LARGE INTESTINE  0.929 ± 0.12
10. HCC38 BREAST  0.926 ± 0.15
11. HT1080 SOFT TISSUE  0.925 ± 0.027
12. PCI30 HEADNECK  0.912 ± 0.056
13. VP229 BREAST  0.912 ± 0.14
14. MDAMB157 BREAST  0.911 ± 0.034
15. SG31 HEADNECK  0.911 ± 0.064
16. NY BONE  0.905 ± 0.021
17. JURKAT HAEMATOPOIETIC AND LYMPHOID TISSUE  0.902 ± 0.025
18. MDAMB231 BREAST  0.902 ± 0.028
19. NCIH441 LUNG  0.896 ± 0.03
20. SIHA CERVIX  0.889 ± 0.024
21. CAL51 BREAST  0.881 ± 0.05
22. T47D BREAST  0.878 ± 0.023
23. C33A CERVIX  0.868 ± 0.074
24. SCC003 HEADNECK  0.868 ± 0.085
25. NOS1 BONE  0.867 ± 0.02
26. OS25HAL BONE  0.862 ± 0.037
27. OSHN BONE  0.842 ± 0.007
28. SNU475 LIVER  0.828 ± 0.034
29. MCF7 BREAST  0.824 ± 0.025
30. CASKI CERVIX  0.821 ± 0.062
31. HU09 BONE  0.82 ± 0.06
32. CADOES1 SOFT TISSUE  0.818 ± 0.1
33. CCK81 LARGE INTESTINE  0.805 ± 0.085
34. MDAMB361 BREAST  0.737 ± 0.045
35. RDES SOFT TISSUE  0.735 ± 0.1
36. LM7 BONE  0.691 ± 0.08
37. BT549 BREAST  0.672 ± 0.094
38. ASKA SYNOVIAL  0.641 ± 0.065
39. MDAMB134 BREAST  0.625 ± 0.048
40. YAMATO SYNOVIAL  0.562 ± 0.092
41. SG32 HEADNECK  0.492 ± 0.0071
42. HCC1954 BREAST  0.362 ± 0.0088

Same assay, conditions: 5 nM; exposure time: 5 days

In order of rising surviving fraction:
1. JURKAT HAEMATOPOIETIC AND LYMPHOID TISSUE  0.282 ± 0.011
2. YAMATO SYNOVIAL  0.466 ± 0.035
3. SJSA1 BONE  1.01 ± 0.15
